Data: patent US8247170B2, “Detection of penicillin tolerance in Group B Streptococcus: single nucleotide polymorphisms in penicillin binding protein 4” (priority 2008, dated 2012)

System: GBS clinical isolates and laboratory strains
Assay: Macrobroth penicillin tolerance assay
Format: cell-based, Group B Streptococcus
Settings: then 24 h drug-free; for 30xMIC, regrowth O.D.600: Penicillin G 30×MIC90 48 h; for 100xMIC, regrowth O.D.600: Penicillin G 100×MIC90 48 h; for 300xMIC, regrowth O.D.600: Penicillin G 300×MIC90 48 h; for 10xMIC, regrowth O.D.600: Penicillin G 10×MIC90 48 h
Procedure: Using this modified penicillin tolerance assay, tolerant strains from the GBS clinical isolates can be more efficiently identified. In this macrobroth culture format, 25 ml THB broth GBS cultures (containing clinical isolates) were grown to an early exponential growth phase (˜0.2 OD600). Cell cultures (6 ml) were collected and divided into 4 culture tubes. […] Cell cultures were shaken at 150 rpm in order to maintain cells in suspension for proper growth. Subcultures (1/20 dilution) of cells were put into fresh THB containing […] Penase (i.e., 100 μl of Penase 10,000 U stock into 4 ml THB culture). Subcultures were allowed to grow for 24 hours at 37° C. Cell growth was monitored by OD (see Example 2).
(I) Bacterial Strains and Culture Conditions. GBS strains A909 (serotype IA), 515 (serotype IA), NEM316 (serotype III), COHI (serotype III), 2603V/R (serotype V) and O90R (non-typable) were used in this study. E. coli Top10 cells were used for the recombination experiments. GBS was cultured in Todd Hewitt broth (THB) or Tryptic Soy 5% sheep blood (TS) media and E. coli in Luria-broth (LB) medium or agar. Antibiotics were used at the following concentrations: for GBS—penicillin G (MIC90 0.06 μg ml^−1), ampicillin (MIC90 0.12 μg ml^−1), vancomycin (MIC90 2 μg ml^−1), cefazolin (MIC90 1 μg ml^−1) and chloramphenicol (5 μg ml^−1); for E. coli—ampicillin (50 μg ml^−1) and chloramphenicol (5 μg ml^−1). Both GBS and E. coli cultures were grown at 37° C. (II) Tolerance Using the MBC:MIC Ratio Method. Three GBS laboratory strains (i.e., A909, NEM316, and O90R) were cultured overnight for 18 h at 37° C. in THB. Subcultures in THB were subsequently grown to exponential phase (OD600˜0.3; i.e. 5×10^5 cfu/ml) at 37° C. Cell cultures were then exposed to different concentrations of antibiotics (Penicillin G, Ampicillin, Cefozolin or Vancomycin). […] Cell cultures were dispersed every 18 h before OD600 was measured to determine the lowest concentration of antibiotic with 90% growth inhibition (MIC90). Antibiotic treated cells (8 μl) from each well were re-suspended into PBS (100 μl) and plated (54 μl) on TS agar plates and allowed to grow for an additional 24 h at 37° C. Cell count was performed to determine the lowest concentration of antibiotic with 90% killing of original inoculums (MBC90). (III) Penicillin Killing and Regrowth Tolerance Assay by Microbroth Dilution. Three GBS laboratory strains (i.e., A909, NEM316, and O90R) were cultured overnight for 18 h at 37° C. in THB. Subcultures in THB were subsequently grown to exponential phase (OD600˜0.3) at 37° C. Cell cultures were then exposed to different concentrations of Penicillin G (Sigma, St. Louis, Mo.). […] Cell cultures were dispersed. A 1:20 dilution of cells was re-plated into new wells containing fresh THB with 500 U Penase (to degrade residual penicillin). Cell cultures were allowed to re-grow for an additional 24 h at 37° C. before the OD600 was measured. (IV) Measuring Cell Viability by Determining ATP Concentration. GBS strains were cultured for 18 h at 37° C. in THB. These cells were inoculated into fresh THB and subsequently allowed to grow to exponential phase (OD600 0.25-0.3) at 37° C. One ml of each culture was centrifuged at 5,000×g for 4 min. The cell pellet was re-suspended in ATP-free water. Cellular ATP was extracted using trichloroacetic acid (TCA) (5%) for 2 min and subsequently neutralized with Tris-EDTA-0.1M NaOAc, pH 7.75 to 10×TCA volume. The initial (in.) cellular ATP concentration ([ATP]) was measured using the ENLITEN (Promega) luciferase based reaction kit. THB cultures were then treated with 100×MIC90 Penicillin G for 22 h. The experimental (exp.) cellular ATP was extracted and the concentration was measured as stated above. Based on the calculations ([ATP] exp.)/([ATP] in./O.D. in.), differences in viability were equated with the change in [ATP]. (V) Measuring Penicillin Induced Lysis. Three GBS laboratory strains (A909, NEM316, and O90R) were cultured for 18 h at 37° C. in THB. […]

With `CC1(C)S[C@@H]2[C@H](NC(=O)Cc3ccccc3)C(=O)N2[C@H]1C(=O)O` [Penicillin G] the “30xMIC, regrowth O.D.600” value (GBS strain 172 (NT)) was “−− (“−−” indicates an O.D.600 of 0.001 to 0.099)”, the “100xMIC, regrowth O.D.600” value (GBS strain 172 (NT)) was “−− (“−−” indicates an O.D.600 of 0.001 to 0.099)” and the “300xMIC, regrowth O.D.600” value (GBS strain 172 (NT)) was “−− (“−−” indicates an O.D.600 of 0.001 to 0.099)”. For the same compound, the “10xMIC, regrowth O.D.600” value (GBS strain 180 (V)) was “−− (“−−” indicates an O.D.600 of 0.001 to 0.099)”, the “30xMIC, regrowth O.D.600” value (GBS strain 180 (V)) was “−− (“−−” indicates an O.D.600 of 0.001 to 0.099)” and the “100xMIC, regrowth O.D.600” value (GBS strain 180 (V)) was “−− (“−−” indicates an O.D.600 of 0.001 to 0.099)”. The “300xMIC, regrowth O.D.600” value (GBS strain 180 (V)) was “−− (“−−” indicates an O.D.600 of 0.001 to 0.099)”, the “10xMIC, regrowth O.D.600” value (GBS strain 193 (III)) was “−− (“−−” indicates an O.D.600 of 0.001 to 0.099)” and the “30xMIC, regrowth O.D.600” value (GBS strain 193 (III)) was “−− (“−−” indicates an O.D.600 of 0.001 to 0.099)”. For the same compound, the “100xMIC, regrowth O.D.600” value (GBS strain 193 (III)) was “−− (“−−” indicates an O.D.600 of 0.001 to 0.099)”, the “300xMIC, regrowth O.D.600” value (GBS strain 193 (III)) was “−− (“−−” indicates an O.D.600 of 0.001 to 0.099)” and the “10xMIC, regrowth O.D.600” value (GBS strain 204 (V)) was “−− (“−−” indicates an O.D.600 of 0.001 to 0.099)”. For the same compound, the “30xMIC, regrowth O.D.600” value (GBS strain 204 (V)) was “−− (“−−” indicates an O.D.600 of 0.001 to 0.099)”, the “100xMIC, regrowth O.D.600” value (GBS strain 204 (V)) was “−− (“−−” indicates an O.D.600 of 0.001 to 0.099)” and the “300xMIC, regrowth O.D.600” value (GBS strain 204 (V)) was “−− (“−−” indicates an O.D.600 of 0.001 to 0.099)”. The “10xMIC, regrowth O.D.600” value (GBS strain 211 (Ib)) was “−− (“−−” indicates an O.D.600 of 0.001 to 0.099)”, the “30xMIC, regrowth O.D.600” value (GBS strain 211 (Ib)) was “−− (“−−” indicates an O.D.600 of 0.001 to 0.099)” and the “100xMIC, regrowth O.D.600” value (GBS strain 211 (Ib)) was “−− (“−−” indicates an O.D.600 of 0.001 to 0.099)”. For the same compound, the “300xMIC, regrowth O.D.600” value (GBS strain 211 (Ib)) was “−− (“−−” indicates an O.D.600 of 0.001 to 0.099)”, the “10xMIC, regrowth O.D.600” value (GBS strain 219 (Ia)) was “+ (“+” indicates an O.D.600 of 0.100 to 0.250)” and the “30xMIC, regrowth O.D.600” value (GBS strain 219 (Ia)) was “+ (“+” indicates an O.D.600 of 0.100 to 0.250)”. For the same compound, the “100xMIC, regrowth O.D.600” value (GBS strain 219 (Ia)) was “+ (“+” indicates an O.D.600 of 0.100 to 0.250)”, the “300xMIC, regrowth O.D.600” value (GBS strain 219 (Ia)) was “+ (“+” indicates an O.D.600 of 0.100 to 0.250)” and the “10xMIC, regrowth O.D.600” value (GBS strain 244 (Ib)) was “−− (“−−” indicates an O.D.600 of 0.001 to 0.099)”. The “30xMIC, regrowth O.D.600” value (GBS strain 244 (Ib)) was “−− (“−−” indicates an O.D.600 of 0.001 to 0.099)”, the “100xMIC, regrowth O.D.600” value (GBS strain 244 (Ib)) was “−− (“−−” indicates an O.D.600 of 0.001 to 0.099)” and the “300xMIC, regrowth O.D.600” value (GBS strain 244 (Ib)) was “−− (“−−” indicates an O.D.600 of 0.001 to 0.099)”. The “10xMIC, regrowth O.D.600” value (GBS strain 264 (V)) was “+++ (“+++” indicates an O.D.600 of 0.751 to 1.500)”, the “30xMIC, regrowth O.D.600” value (GBS strain 264 (V)) was “++ (“++” indicates an O.D.600 of 0.251 to 0.750)” and the “100xMIC, regrowth O.D.600” value (GBS strain 264 (V)) was “−− (“−−” indicates an O.D.600 of 0.001 to 0.099)”. For the same compound, the “300xMIC, regrowth O.D.600” value (GBS strain 264 (V)) was “++ (“++” indicates an O.D.600 of 0.251 to 0.750)”, the “10xMIC, regrowth O.D.600” value (GBS strain 268 (Ib)) was “++ (“++” indicates an O.D.600 of 0.251 to 0.750)” and the “30xMIC, regrowth O.D.600” value (GBS strain 268 (Ib)) was “−− (“−−” indicates an O.D.600 of 0.001 to 0.099)”. The “100xMIC, regrowth O.D.600” value (GBS strain 268 (Ib)) was “+++ (“+++” indicates an O.D.600 of 0.751 to 1.500)”, the “300xMIC, regrowth O.D.600” value (GBS strain 268 (Ib)) was “+++ (“+++” indicates an O.D.600 of 0.751 to 1.500)” and the “10xMIC, regrowth O.D.600” value (GBS strain 272 (V)) was “−− (“−−” indicates an O.D.600 of 0.001 to 0.099)”. The “30xMIC, regrowth O.D.600” value (GBS strain 272 (V)) was “−− (“−−” indicates an O.D.600 of 0.001 to 0.099)”, the “100xMIC, regrowth O.D.600” value (GBS strain 272 (V)) was “−− (“−−” indicates an O.D.600 of 0.001 to 0.099)” and the “300xMIC, regrowth O.D.600” value (GBS strain 272 (V)) was “−− (“−−” indicates an O.D.600 of 0.001 to 0.099)”. For the same compound, the “10xMIC, regrowth O.D.600” value (GBS strain 273 (V)) was “−− (“−−” indicates an O.D.600 of 0.001 to 0.099)”, the “30xMIC, regrowth O.D.600” value (GBS strain 273 (V)) was “−− (“−−” indicates an O.D.600 of 0.001 to 0.099)” and the “100xMIC, regrowth O.D.600” value (GBS strain 273 (V)) was “−− (“−−” indicates an O.D.600 of 0.001 to 0.099)”. The “300xMIC, regrowth O.D.600” value (GBS strain 273 (V)) was “++ (“++” indicates an O.D.600 of 0.251 to 0.750)”, the “10xMIC, regrowth O.D.600” value (GBS strain 279 (III)) was “++ (“++” indicates an O.D.600 of 0.251 to 0.750)” and the “30xMIC, regrowth O.D.600” value (GBS strain 279 (III)) was “+++ (“+++” indicates an O.D.600 of 0.751 to 1.500)”. The “100xMIC, regrowth O.D.600” value (GBS strain 279 (III)) was “++ (“++” indicates an O.D.600 of 0.251 to 0.750)”, the “300xMIC, regrowth O.D.600” value (GBS strain 279 (III)) was “++ (“++” indicates an O.D.600 of 0.251 to 0.750)” and the “10xMIC, regrowth O.D.600” value (GBS strain 296 (Ia)) was “−− (“−−” indicates an O.D.600 of 0.001 to 0.099)”. For the same compound, the “30xMIC, regrowth O.D.600” value (GBS strain 296 (Ia)) was “−− (“−−” indicates an O.D.600 of 0.001 to 0.099)”, the “100xMIC, regrowth O.D.600” value (GBS strain 296 (Ia)) was “++ (“++” indicates an O.D.600 of 0.251 to 0.750)” and the “300xMIC, regrowth O.D.600” value (GBS strain 296 (Ia)) was “−− (“−−” indicates an O.D.600 of 0.001 to 0.099)”. For the same compound, the “10xMIC, regrowth O.D.600” value (GBS strain 306 (II)) was “−− (“−−” indicates an O.D.600 of 0.001 to 0.099)”, the “30xMIC, regrowth O.D.600” value (GBS strain 306 (II)) was “−− (“−−” indicates an O.D.600 of 0.001 to 0.099)” and the “100xMIC, regrowth O.D.600” value (GBS strain 306 (II)) was “−− (“−−” indicates an O.D.600 of 0.001 to 0.099)”. The “300xMIC, regrowth O.D.600” value (GBS strain 306 (II)) was “−− (“−−” indicates an O.D.600 of 0.001 to 0.099)”, the “10xMIC, regrowth O.D.600” value (GBS strain 307 (II)) was “−− (“−−” indicates an O.D.600 of 0.001 to 0.099)” and the “30xMIC, regrowth O.D.600” value (GBS strain 307 (II)) was “−− (“−−” indicates an O.D.600 of 0.001 to 0.099)”. The “100xMIC, regrowth O.D.600” value (GBS strain 307 (II)) was “−− (“−−” indicates an O.D.600 of 0.001 to 0.099)” and the “300xMIC, regrowth O.D.600” value (GBS strain 307 (II)) was “−− (“−−” indicates an O.D.600 of 0.001 to 0.099)”.
